PMC12684391, “Mechanistic insights into the monotherapy and combination potential of FEN1 inhibition in cancer therapy” (Nucleic Acids Research, 2025)

How the values were obtained:
[1] = test system: FEN1 chromatin enrichment in HeLa cells; test: Chromatin retention assay (immunofluorescence, CSK-extracted cells); format: cell-based; details: 24 h treatment
Description: HeLa cells were seeded at a density of 4000 cells per well in 100 μl of media in collagen-coated 96-well plates (Revvity, #6055700). Sixteen to twenty-four hours after seeding, compounds were dispensed using the D300e digital dispenser (Tecan) to generate a multipoint dose–response curve, equalized to final DMSO concentration. After 24 h, cells were washed with phosphate buffered saline (PBS) and pre-extracted with 50 μl of ice-cold cytoskeletal (CSK) buffer [10 mM PIPES pH 6.8 (Sigma–Aldrich, P8203-50G), 100 mM NaCl (VWR, 27810.295), 300 mM sucrose (Sigma–Aldrich, S0389-500G), 1.5 mM MgCl2 (VWR, 8760.29), 5 mM EDTA (Sigma–Aldrich, E7889-100ML), 0.4% Triton […] (Sigma–Aldrich, T9285-500ML)], for 4 min on ice. Cells were then washed with PBS and fixed in 4% paraformaldehyde (PFA) (ChemCruz, sc-281692) for 10 min at room temperature.
For immunofluorescence staining, cells were washed with PBS then blocked and permeabilized with PBS containing 0.5% bovine serum albumin (BSA) and 0.5% Triton X-100 (blocking buffer) for 1 h at room temperature. Cells were then stained with the indicated markers (FEN1 or PARP1) by incubation with primary antibodies (Supplementary Table S5) diluted in blocking buffer, at room temperature for 4 h (FEN1) or overnight at 4°C (PARP1). […]

DLD-1 BRCA2KO cells = test: Cell viability assay (AlamarBlue), 7 days; format: cell-based
Description: Cells were seeded in 96-well plates and treated the day after seeding with a serial dilution of compounds in technical duplicates. After 7 days, viability was analyzed using the AlamarBlue reagent (BioRad). AlamarBlue was added in an amount equal to 10% of the volume in the well and after a 4–6 h incubation viability was determined by fluorescence analysis using a standard plate reader. Fluorescence was normalized to vehicle treated control for each cell line, and data were fitted in Genedata Screener to generate compound sensitivity curves and determine IC50 or EC50 (half maximal inhibitory/effective concentration) values as indicated.

FEN1(1-380)-6His = target: T1, FEN1(1-380)-6His (Homo sapiens, UniProt P39748); test: Surface plasmon resonance on immobilized FEN1; format: binding; details: SPR, 25°C, mean of n = 4 surfaces; for Kd: 1:1 Langmuir model; for residence time: read-out: τ (residence time)
T1 construct: FEN1(1-380)-6His was immobilized on a CM5 chip; made in house; host or cells: Escherichia coli
Description: The kinetic parameters of the interaction between FEN1 and small molecules were assessed by surface plasmon resonance (SPR). FEN1(1-380)-6His was immobilized on a CM5 chip (Series S, Cytiva, Uppsala, Sweden) via standard amine coupling procedure at 25°C. Prior to immobilization, the carboxymethylated surface of the CM5 chip was activated with 400 mM 1-ethyl-3-(3-dimethylaminopropyl)-carbodiimide and 100 mM N-hydroxysuccinimide for 7 min. FEN1 was diluted to 10 µg/ml in 10 mM Bis–Tris pH 6.50 and injected in the presence of 2 µM of an active site binder on the CM5 chip for 3 or 4 min resulting in immobilization levels between 1300 and 3100 response units (RU). The remaining activated carboxymethylated groups were blocked with a 7 min injection of 1 M ethanolamine pH 8.50. HBS-N pH 7.40 was used as the background buffer during immobilization.
All compounds were prediluted in DMSO, diluted 1:50 in running buffer (20 mM Tris–HCl pH 7.50, 100 mM KCl, 1 mM DTT, 5 mM MgCl2, 0.05% Tween-20, and 2% DMSO) and injected at 10 different concentrations using two-fold dilution series. A DMSO solvent correction (10 steps, 1.4%–2.8%) was performed to account for variations in bulk signal and to achieve high-quality data. Interaction analysis cycles consisted of a 150 s sample injection (30 μl/min; association phase) followed by 300 s of buffer flow (dissociation phase).
Experiments were performed on a Biacore 8K+ (Cytiva, Uppsala, Sweden) at 25°C and the interactions were evaluated using the Biacore Insight evaluation software (version 5.0). All sensorgrams were processed by first subtracting the signal of the control surface (reference spot) from the binding response, followed by subtraction of the buffer blank injection from the reaction spot (double referencing). All datasets were fitted to a simple 1:1 Langmuir interaction model to determine the kinetic rate constants (using as offset RI = const = 0 and for Rmax either global or local, if the surface generation was not complete between consecutive cycles). Reported kinetic parameters are mean values from four independent FEN1 surfaces (n = 4).

T1 sequence (P39748 whole entry): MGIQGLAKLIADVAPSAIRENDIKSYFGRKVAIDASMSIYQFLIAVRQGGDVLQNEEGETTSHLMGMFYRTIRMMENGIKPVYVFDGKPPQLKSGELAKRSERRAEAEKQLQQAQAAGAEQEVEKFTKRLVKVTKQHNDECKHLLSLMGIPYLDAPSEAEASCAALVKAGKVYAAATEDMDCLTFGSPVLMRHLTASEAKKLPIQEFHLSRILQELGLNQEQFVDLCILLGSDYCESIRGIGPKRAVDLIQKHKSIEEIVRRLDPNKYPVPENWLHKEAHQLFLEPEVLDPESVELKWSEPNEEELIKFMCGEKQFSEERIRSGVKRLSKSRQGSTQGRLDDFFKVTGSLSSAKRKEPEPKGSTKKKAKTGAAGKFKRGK

Compound | Chromatin enrichment (of either FEN1 or PARP1) and DNA damage signalling ([1]; HeLa cells) | Sensitivity of cell lines (viability) (DLD-1 BRCA2KO cells; DLD-1 and DLD-1 BRCA2KO, 7 days, AlamarBlue, compared with MSC778) | Kd (FEN1(1-380)-6His) | koff (FEN1(1-380)-6His) | kon (FEN1(1-380)-6His) | residence time (FEN1(1-380)-6His) | EC50 ([1]; Homo sapiens, unchallenged HeLa cells) | EC50 (DLD-1 BRCA2KO cells; Homo sapiens, 168 h, DLD-1 BRCA2KO, 7 days, AlamarBlue, N = 3) | Sensitivity of DLD-1 BRCA2KO relative to parental DLD-1 cells (DLD-1 BRCA2KO cells; more sensitive than isogenic DLD-1 wild-type)
C[C@@H](Oc1nn2c(c(O)c1=O)C(=O)N1CCOC[C@@H]1C2)c1ccc2ccc(Cl)cc2c1 [MSC781] | not enhanced | much less sensitive | 23 nM | 0.0034 s⁻¹ | 150000 M⁻¹ s⁻¹ | 4.8 min | – | – | –
C[C@H](Oc1nn2c(c(O)c1=O)C(=O)N1CCOC[C@@H]1C2)c1ccc2ccc(Cl)cc2c1 [MSC778] | – | – | 2.9 nM | 0.00052 s⁻¹ | 180000 M⁻¹ s⁻¹ | 32 min | 1200 nM | 220 nM | ~10 fold
